Assay results as given in patent US20100298141A1, “SUBSTITUTED PYRIDINE N-OXIDE HERBICIDES” (E. I. DU PONT DE NEMOURS AND COMPANY, priority 2007, published 2010).

How the values were obtained:
[1] = test system: giant foxtail; experiment: Test A pre-/postemergence greenhouse test; assay type: in vivo, Setaria faberi; settings: for Plant response rating, Foxtail, Giant: 0 to 100 scale where 0 is no effect and 100 is complete control; for Foxtail, Giant plant response rating: 0 to 100 scale
Summary of the method: (§1)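 Untreated controls served as the reference for visual injury ratings taken about ten days after spraying. The non-phytotoxic solvent/surfactant formulation was applied preemergence to seeded loam and sand and postemergence to plants two to ten cm high.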

[2] = test system: redroot pigweed; experiment: Test A pre-/postemergence greenhouse test; assay type: in vivo, Amaranthus retroflexus; settings: for Plant response rating, Pigweed: 0 to 100 scale where 0 is no effect and 100 is complete control; for Pigweed plant response rating: 0 to 100 scale
Summary of the method: as §1

[3] = test system: velvetleaf; experiment: Test A pre-/postemergence greenhouse test; assay type: in vivo, Abutilon theophrasti; settings: for Plant response rating, Velvetleaf: 0 to 100 scale where 0 is no effect and 100 is complete control; for Velvetleaf plant response rating: 0 to 100 scale
Summary of the method: as §1

[4] = test system: wheat; experiment: Test A pre-/postemergence greenhouse test; assay type: in vivo, Triticum aestivum; settings: for Plant response rating, Wheat: 0 to 100 scale where 0 is no effect and 100 is complete control; for Wheat plant response rating: 0 to 100 scale
Summary of the method: as §1

[5] = test system: corn; experiment: Test A pre-/postemergence greenhouse test; assay type: in vivo, Zea mays; settings: for Plant response rating, Corn: 0 to 100 scale where 0 is no effect and 100 is complete control; for Corn plant response rating: 0 to 100 scale
Summary of the method: as §1

[6] = test system: wild oat; experiment: Test C pre-/postemergence test; assay type: in vivo, Avena fatua
Source text: (§2) Seeds of plant species selected from blackgrass (Alopecurus myosuroides), downy brome (Bromus tectorum), green foxtail (Setaria viridis), Italian ryegrass (Lolium multiflorum), wheat (Triticum aestivum), wild oat (Avena fatua), catchweed bedstraw (Galium aparine), Russian thistle (Salsola kali), […] (Cynodon dactylon), Surinam grass (Brachiaria decumbens), cocklebur (Xanthium strumarium), corn (Zea mays), crabgrass (Digitaria sanguinalis), woolly cupgrass (Eriochloa villosa), giant foxtail (Setaria faberii), Goosegrass (Eleusin indica), johnsongrass (Sorghum halepense), kochia (Kochia scoparia), lambsquarters (Chenopodium album), morningglory (Ipomoea coccinea), eastern black nightshade (Solanum ptycanthum), yellow nutsedge (Cyperus esculentus), pigweed (Amaranthus retroflexus), common ragweed (Ambrosia elation), soybean (Glycine max), common (oilseed) sunflower (Helianthus annuus), and velvetleaf (Abutilon theophrasti) were planted and treated preemergence with test chemicals formulated in a non-phytotoxic solvent mixture which included a surfactant. At the same time, plants selected from these crop and weed species and also winter barley (Hordeum vulgare), canarygrass (Phalaris minor), and chickweed (Stellaria media) were treated with postemergence applications of some of the test chemicals formulated in the same manner. Plants ranged in height from 2 to 18 cm (1- to 4-leaf stage) for postemergence treatments. […] At time of treatment, test pots were flooded to 3 cm above the soil surface, treated by application of test compounds directly to the paddy water, and then maintained at that water depth for the duration of the test. […] A dash (-) response means no test result.

[7] = test system: bermudagrass; experiment: Test C pre-/postemergence test; assay type: in vivo, Cynodon dactylon
Source text: as §2

[8] = test system: Surinam grass; experiment: Test C pre-/postemergence test; assay type: in vivo, Brachiaria decumbens
Source text: as §2

[9] = test system: giant foxtail; experiment: Test C pre-/postemergence test; assay type: in vivo, Setaria faberii
Source text: as §2

[10] = test system: Goosegrass; experiment: Test C pre-/postemergence test; assay type: in vivo, Eleusin indica
Source text: as §2

[11] = test system: johnsongrass; experiment: Test C pre-/postemergence test; assay type: in vivo, Sorghum halepense
Source text: as §2

[12] = test system: lambsquarters; experiment: Test C pre-/postemergence test; assay type: in vivo, Chenopodium album; settings: Postemergence; for Plant response rating, Lambsquarters: scale 0 to 100, 0 no effect, 100 complete control
Source text: as §2

[13] = test system: common ragweed; experiment: Test C pre-/postemergence test; assay type: in vivo, Ambrosia elation; settings: for Plant response rating (0 to 100), Ragweed / Plant response rating, Ragweed: Postemergence; for Plant response rating, Ragweed: scale 0 to 100, 0 no effect, 100 complete control
Source text: as §2

[14] = test system: velvetleaf; experiment: Test C pre-/postemergence test; assay type: in vivo, Abutilon theophrasti
Source text: as §2

[15] = test system: rice; experiment: Test C flooded paddy test; assay type: in vivo, Oryza sativa; settings: Flood
Summary of the method: (§3)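 In-water treatment: compound dosed into 3 cm flood over soil, water level unchanged throughout. Controls run alongside; visual assessment at day 13–15.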

[16] = test system: duck salad; experiment: Test C flooded paddy test; assay type: in vivo, Heteranthera limosa; settings: Flood
Summary of the method: as §3

[17] = test system: barnyardgrass; experiment: Test C flooded paddy test; assay type: in vivo, Echinochloa crus-galli; settings: Flood
Summary of the method: as §3

[18] = Postemergence, 500 g ai/ha, 0 is no effect, 100 is complete control
[19] = Preemergence, 125 g ai/ha, 0 no effect, 100 complete control
[20] = 62 g ai/ha, Preemergence, scale 0 to 100
[21] = 125 g ai/ha, preemergence, scale 0 (no effect) to 100 (complete control)
[22] = Postemergence, 62 g ai/ha, scale 0 to 100, 0 no effect, 100 complete control
[23] = Postemergence, 125 g ai/ha, scale 0 to 100, 0 no effect, 100 complete control
[24] = Postemergence, 250 g ai/ha, scale 0 to 100, 0 no effect, 100 complete control
[25] = Preemergence, 31 g ai/ha, scale 0 to 100 (0 no effect, 100 complete control)
[26] = preemergence, 250 g ai/ha, scale 0 (no effect) to 100 (complete control)
[27] = 62 g ai/ha, scale 0 to 100 (0 no effect, 100 complete control)
[28] = 250 g ai/ha, scale 0 to 100, 0 no effect, 100 complete control, 13 to 15 days

CCn1nc(C(F)(F)F)c(CS(=O)(=O)c2cc(C)cc[n+]2[O-])c1OCC(F)(F)F [Compound 64]
20: Plant response rating, Ducksalad [16, 27] | Plant response rating, Barnyardgrass [17, 28]
100: Foxtail, Giant plant response rating [1, 19] | Plant response rating, Foxtail, Giant ([1]; Preemergence, 500 g ai/ha) | Plant response rating, Pigweed ([2]; Preemergence, 500 g ai/ha) | Plant response rating, Velvetleaf ([3]; Preemergence, 500 g ai/ha) | Bermudagrass plant response rating ([7]; 62 g ai/ha, Preemergence, scale 0 to 100 (0 no effect, 100 complete control)) | Bermudagrass plant response rating [7, 21] | Plant response rating, Bermudagrass [7, 25] | Bermudagrass plant response rating [7, 26] | Surinam Grass plant response rating [8, 20] | Surinam Grass plant response rating [8, 21] | Surinam Grass plant response rating [8, 26] | Foxtail, Giant plant response rating [9, 20] | Foxtail, Giant plant response rating [9, 21] | Foxtail, Giant plant response rating [9, 26] | Goosegrass plant response rating [10, 20] | Goosegrass plant response rating [10, 21] | Goosegrass plant response rating [10, 26] | Johnsongrass plant response rating [11, 21] | Johnsongrass plant response rating [11, 26] | Ragweed plant response rating [13, 21] | Ragweed plant response rating [13, 26] | Velvetleaf plant response rating [14, 20] | Velvetleaf plant response rating [14, 21] | Velvetleaf plant response rating [14, 26]
70: Plant response rating, Pigweed ([2]; Postemergence, 125 g ai/ha) | Velvetleaf plant response rating [3, 18] | Plant response rating, Wheat ([4]; Preemergence, 500 g ai/ha)
98: Oat, Wild plant response rating [6, 26] | Johnsongrass plant response rating [11, 20]
55: Plant response rating, Goosegrass [10, 24] | Plant response rating, Johnsongrass [11, 25]
30: Plant response rating, Oat, Wild [6, 22]
45: Plant response rating, Foxtail, Giant [9, 24] | Plant response rating, Velvetleaf [14, 25]
90: Foxtail, Giant plant response rating [1, 18] | Oat, Wild plant response rating [6, 21]
0: Corn plant response rating [5, 19] | Plant response rating (0 to 100), Oat, Wild ([6]; Postemergence, 31 g ai/ha) | Plant response rating (0 to 100), Bermudagrass ([7]; Postemergence, 31 g ai/ha) | Plant response rating, Bermudagrass [7, 22] | Plant response rating, Bermudagrass [7, 23] | Plant response rating (0 to 100), Surinam Grass ([8]; Postemergence, 31 g ai/ha) | Plant response rating (0 to 100), Surinam Grass ([8]; Postemergence, 62 g ai/ha) | Plant response rating, Surinam Grass [8, 23] | Plant response rating (0 to 100), Foxtail, Giant ([9]; Postemergence, 31 g ai/ha) | Plant response rating, Foxtail, Giant [9, 22] | Plant response rating, Foxtail, Giant [9, 23] | Plant response rating (0 to 100), Goosegrass ([10]; Postemergence, 31 g ai/ha) | Plant response rating, Goosegrass [10, 22] | Plant response rating, Goosegrass [10, 23] | Plant response rating (0 to 100), Johnsongrass ([11]; Postemergence, 31 g ai/ha) | Plant response rating, Johnsongrass [11, 22] | Plant response rating, Johnsongrass [11, 23] | Plant response rating, Johnsongrass [11, 24] | Plant response rating (0 to 100), Lambsquarters ([12]; 31 g ai/ha) | Plant response rating, Lambsquarters ([12]; 62 g ai/ha) | Plant response rating, Lambsquarters ([12]; 125 g ai/ha) | Plant response rating, Lambsquarters ([12]; 250 g ai/ha) | Plant response rating (0 to 100), Ragweed ([13]; 31 g ai/ha) | Plant response rating (0 to 100), Ragweed ([13]; 62 g ai/ha) | Plant response rating, Ragweed ([13]; 125 g ai/ha) | Plant response rating, Ragweed ([13]; 250 g ai/ha) | Plant response rating (0 to 100), Velvetleaf ([14]; Postemergence, 31 g ai/ha) | Plant response rating (0 to 100), Velvetleaf ([14]; Postemergence, 62 g ai/ha) | Plant response rating, Velvetleaf [14, 23] | Plant response rating, Rice [15, 27] | Plant response rating, Barnyardgrass [17, 27]
40: Wheat plant response rating [4, 19] | Plant response rating, Corn ([5]; Postemergence, 125 g ai/ha) | Plant response rating, Bermudagrass [7, 24] | Plant response rating, Surinam Grass [8, 24] | Plant response rating, Velvetleaf [14, 24]
95: Plant response rating, Surinam Grass [8, 25] | Plant response rating, Goosegrass [10, 25]
60: Plant response rating, Velvetleaf ([3]; Postemergence, 125 g ai/ha) | Wheat plant response rating [4, 18] | Plant response rating, Corn ([5]; Preemergence, 500 g ai/ha) | Plant response rating, Rice [15, 28]
80: Plant response rating, Foxtail, Giant ([1]; Postemergence, 125 g ai/ha) | Pigweed plant response rating [2, 18] | Oat, Wild plant response rating [6, 20]
50: Pigweed plant response rating [2, 19] | Velvetleaf plant response rating [3, 19] | Plant response rating, Wheat ([4]; Postemergence, 125 g ai/ha) | Corn plant response rating [5, 18] | Plant response rating, Oat, Wild [6, 23] | Plant response rating, Oat, Wild [6, 25]
85: Plant response rating, Oat, Wild [6, 24] | Plant response rating, Foxtail, Giant [9, 25] | Ragweed plant response rating [13, 20]
75: Plant response rating, Ducksalad [16, 28]
